Laboratory results from patent US8853213B2, “Bicyclic compound for modulating G protein-coupled receptors” (Hanmi Pharm. Co., Ltd, priority 2011, dated 2014).

Each compound was assayed against T1, GPR119 (Homo sapiens, UniProt Q8TDV5) (assay: Controlling Effect of GPR119 in CRE-bla CHO-K1 Cells (EC50)). Details: GPR119 CRE-bla CHO-K1 cell line, 5 hr incubation with compound, β-lactamase LiveBLAzer-FRET B/G readout; read-out: controlling effect against GPR119 in CRE-bla CHO-K1 cell line (EC50).
T1 construct: host or cells: CHO-K1 (CRE-bla reporter, doxycycline-induced)
T1 sequence (Q8TDV5 1-335): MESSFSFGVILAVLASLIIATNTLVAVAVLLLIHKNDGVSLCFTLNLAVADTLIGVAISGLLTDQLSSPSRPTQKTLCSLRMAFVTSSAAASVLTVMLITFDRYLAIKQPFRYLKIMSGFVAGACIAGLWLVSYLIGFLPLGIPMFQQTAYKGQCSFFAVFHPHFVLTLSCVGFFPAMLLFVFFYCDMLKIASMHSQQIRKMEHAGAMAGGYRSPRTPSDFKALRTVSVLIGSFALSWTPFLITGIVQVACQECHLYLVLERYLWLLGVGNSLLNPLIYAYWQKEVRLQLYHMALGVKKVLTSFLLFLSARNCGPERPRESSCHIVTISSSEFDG
Assay type: cell-based
Experimental: Controlling Effect of GPR119 in CRE-bla CHO-K1 Cells (EC50)
The day before the experiment, GPR119 CRE-bla CHO-K1 cell line purchased from Invitrogen was seeded in a 96 black well plate in an amount of 80 μl at a density of 5×10^4 cells. After the seeding, 10 μl of doxycycline in a concentration of 1 μg/ml was added to each well and incubated in an incubator at 37° C. under 5% CO2 for about 16 to 20 hr.
The day of experiment, sample compounds were performed a 10-fold serial dilution with a culture medium at various concentrations of 1 uM to […]. Considering that the culture medium used in the seeding and doxycycline are together applied, the sample compounds were diluted to a 5-fold dilution of the planned concentration. 20 μl of the compound diluted with the culture medium was added to each well and incubated in the incubator for 5 hr. The compound-untreated group was added with 20 μl of 0.5% dimethyl sulfoxide (DMSO) diluted with the culture medium. After 5 hr from the incubation, substrate mixture of a 6-fold concentration were prepared; 6 μl of 1 mM LiveBLAzer™-FRET B/G(CCF4-AM) substrate, 60 μl of solution B, 904 μl of solution C and 30 μl of solution D. 12 μl of the substrate mixture was added to each well and allowed to be kept at room temperature for 2 hr with shading the light. Fluorescence intensity value of blue channel and green channel was determined by a fluorescence microplate reader at 409 nm/460 nm and 409 nm/[…] (excitation/emission), respectively. In order to confirm the controlling effect of the inventive compounds against GPR119, EC50 (half maximal effective concentration) was determined based on the determined values. EC50, the concentration at which 50% activity of β-lactamase, was determined according to the following Equation: Equation=[(Ti−Tz)/(C−Tz)]×100
[Wherein, Ti: Cell density of the compound-treated group; Tz: Cell density of the negative control group; and C: Cell density of the positive control group]

Row | Compound | EC50 [nM]
1 | 7-(2-fluoro-4-4-[1-(5-trifluoromethylpyrimidin-2-yl)-piperidin-4-yloxy]-thieno[3,2-d]pyrimidine [Example 82] | < 100
2 | CS(=O)(=O)c1ccc(-c2csc3c(N4CCC(c5nc(C6CC6)no5)CC4)ncnc23)cc1 [Example 1, 3-cyclopropyl-5-(1-(7-(4-methanesulfonyl-phenyl)thieno[3,2-d]pyrimidin-4-yl)piperidin-4-yl)-1,2,4-oxadiazole] | < 100
3 | CS(=O)(=O)c1ccc(-c2csc3c(N4CCCC4)ncnc23)cc1 [Example 2, 7-(4-methanesulfonyl-phenyl)-4-(pyrrolidin-1-yl)thieno[3,2-d]pyrimidine] | > 1000
4 | CS(=O)(=O)c1ccc(-c2csc3c(N4CCCCC4)ncnc23)cc1 [Example 3, 7-(4-methanesulfonyl-phenyl)-4-(piperidin-1-yl)thieno[3,2-d]pyrimidine] | > 1000
5 | CCc1noc(C2CCN(c3ncnc4c(-c5ccc(S(C)(=O)=O)cc5)csc34)CC2)n1 [Example 4, 3-ethyl-5-(1-(7-(4-methanesulfonyl-phenyl)thieno[3,2-d]pyrimidin-4-yl)piperidin-4-yl)-1,2,4-oxadiazole] | 100 to 1000
6 | CC(C)c1noc(C2CCN(c3ncnc4c(-c5ccc(S(C)(=O)=O)cc5)csc34)CC2)n1 [Example 5, 3-isopropyl-5-(1-(7-(4-methanesulfonyl-phenyl)thieno[3,2-d]pyrimidin-4-yl)piperidin-4-yl)-1,2,4-oxadiazole] | < 100
7 | CS(=O)(=O)c1ccc(-c2csc3c(N4CCC(c5nc(C6CCCC6)no5)CC4)ncnc23)cc1 [Example 6, 3-cyclopentyl-5-(1-(7-(4-methanesulfonyl-phenyl)thieno[3,2-d]pyrimidin-4-yl)piperidin-4-yl)-1,2,4-oxadiazole] | < 100
8 | CS(=O)(=O)c1ccc(-c2csc3c(N4CCC(c5nc(C6CCCCC6)no5)CC4)ncnc23)cc1 [Example 7, 3-cyclohexyl-5-(1-(7-(4-methanesulfonyl-phenyl)thieno[3,2-d]pyrimidin-4-yl)piperidin-4-yl)-1,2,4-oxadiazole] | < 100
9 | CS(=O)(=O)c1ccc(-c2csc3c(N4CCC(c5nc(-c6ccccc6)no5)CC4)ncnc23)cc1 [Example 8, 5-(1-(7-(4-(methanesulfonylphenyl)phenyl)thieno[3,2-d]pyrimidin-4-yl)piperidin-4-yl)-3-phenyl-1,2,4-oxadiazole] | 100 to 1000
10 | CC(C)c1noc(N2CCN(c3ncnc4c(-c5ccc(S(C)(=O)=O)cc5)csc34)CC2)n1 [Example 9, 3-isopropyl-5-(4-(7-(4-methanesulfonyl-phenyl)thieno[3,2-d]pyrimidin-4-yl)piperazin-1-yl)-1,2,4-oxadiazole] | 100 to 1000
11 | CC(C)(C)OC(=O)N1CCN(c2ncnc3c(-c4ccc(S(C)(=O)=O)cc4)csc23)CC1 [Example 10, tert-butyl 4-(7-(4-methanesulfonyl-phenyl)thieno[3,2-d]pyrimidin-4-yl)piperazine-1-carboxylate] | 100 to 1000
12 | CCc1cnc(N2CCN(c3ncnc4c(-c5ccc(S(C)(=O)=O)cc5)csc34)CC2)nc1 [Example 11, 4-(4-(5-ethylpyrimidin-2-yl)piperazin-1-yl)-7-(4-methanesulfonyl-phenyl)thieno[3,2-d]pyrimidine] | 100 to 1000
13 | CC(C)c1noc(C2CCN(c3ncnc4c(-c5ccc(S(C)(=O)=O)cc5F)csc34)CC2)n1 [Example 12] | < 100
14 | CC(C)c1noc(C2CCN(c3ncnc4c(-c5ccc(S(C)(=O)=O)c(F)c5)csc34)CC2)n1 [Example 13] | > 1000
15 | CC(C)c1noc(C2CCN(c3ncnc4c(-c5ccc([N+](=O)[O-])cc5)csc34)CC2)n1 [Example 14, 4-[4-(3-isopropyl-[1,2,4]oxadiazol-5-yl)-piperidin-1-yl]-7-(4-nitro-phenyl)-thieno[3,2-d]pyrimidine] | > 1000
16 | CC(C)c1noc(C2CCN(c3ncnc4c(-c5ccc(C(=O)O)cc5)csc34)CC2)n1 [Example 15, 4-{4-[4-(3-isopropyl-[1,2,4]oxadiazol-5-yl)-piperidin-1-yl]-thieno[3,2-d]pyrimidin-7-yl}-benzoic acid] | 100 to 1000
17 | COC(=O)c1ccc(-c2csc3c(N4CCC(c5nc(C(C)C)no5)CC4)ncnc23)cc1 [Example 16, 4-{4-[4-(3-isopropyl-[1,2,4]oxadiazol-5-yl)-piperidin-1-yl]-thieno[3,2-d]pyrimidin-7-yl}-benzoic acid methyl ester] | 100 to 1000
18 | CC(C)(C)c1noc(C2CCN(c3ncnc4c(-c5ccc(S(C)(=O)=O)cc5F)csc34)CC2)n1 [Example 17, 4-[4-(3-tert-butyl-[1,2,4]oxadiazol-5-yl)-piperidin-1-yl]-7-(2-fluoro-4-methanesulfonyl-phenyl)-thieno[3,2-d]pyrimidine] | < 100
19 | CS(=O)(=O)c1ccc(-c2csc3c(N4CCC(c5nc(C6CC6)no5)CC4)ncnc23)c(F)c1 [Example 18, 4-[4-(3-cyclopropyl-[1,2,4]oxadiazol-5-yl)-piperidin-1-yl]-7-(2-fluoro-4-methanesulfonyl-phenyl)-thieno[3,2-d]pyrimidine] | < 100
20 | CS(=O)(=O)c1ccc(-c2csc3c(N4CCC(c5nc(C6CCCC6)no5)CC4)ncnc23)c(F)c1 [Example 19, 4-[4-(3-cyclopentyl-[1,2,4]oxadiazol-5-yl)-piperidin-1-yl]-7-(2-fluoro-4-methanesulfonyl-phenyl)-thieno[3,2-d]pyrimidine] | < 100
21 | CCCS(=O)(=O)c1ccc(-c2csc3c(N4CCC(c5nc(C(C)C)no5)CC4)ncnc23)cc1 [Example 20, 4-[4-(3-isopropyl-[1,2,4]oxadiazol-5-yl)-piperidin-1-yl]-7-(4-(propylsulfonyl)phenyl)-thieno[3,2-d]pyrimidine] | < 100
22 | CC(C)c1noc(C2CCN(c3ncnc4c(-c5ccc(S(=O)(=O)C6CC6)cc5)csc34)CC2)n1 [Example 21, 7-(4-(cyclopropylsulfonyl)phenyl)-4-[4-(3-isopropyl-[1,2,4]oxadiazol-5-yl)-piperidin-1-yl]-thieno[3,2-d]pyrimidine] | < 100
23 | CC(C)c1noc(C2CCN(c3ncnc4c(-c5ccc(S(=O)(=O)C(C)C)cc5)csc34)CC2)n1 [Example 22, 4-[4-(3-isopropyl-[1,2,4]oxadiazol-5-yl)-piperidin-1-yl]-7-(4-(isopropylsulfonyl)phenyl)-thieno[3,2-d]pyrimidine] | < 100
24 | CC(C)c1noc(C2CCN(c3ncnc4c(-c5ccc(S(=O)(=O)C6CCCC6)cc5)csc34)CC2)n1 [Example 23, 7-(4-(cyclopentylsulfonyl)phenyl)-4-[4-(3-isopropyl-[1,2,4]oxadiazol-5-yl)-piperidin-1-yl]-thieno[3,2-d]pyrimidine] | < 100
25 | CCCS(=O)(=O)c1ccc(-c2csc3c(N4CCC(c5nc(C(C)C)no5)CC4)ncnc23)c(F)c1 [Example 24, 7-4-(2-fluoro-(4-propylsulfonyl)phenyl)-4-[4-(3-isopropyl-[1,2,4]oxadiazol-5-yl)-piperidin-1-yl]-thieno[3,2-d]pyrimidine] | < 100
26 | Cn1cc(-c2ccc(S(C)(=O)=O)cc2)c2ncnc(OC3CCN(C(=O)OC(C)(C)C)CC3)c21 [Example 25, tert-butyl 4-(5-methyl-7-(4-methanesulfonyl-phenyl)-5H-pyrrolo[3,2-d]pyrimidin-4-yloxy)piperidine-1-carboxylate] | < 100
27 | Cn1cc(-c2ccc(S(C)(=O)=O)cc2)c2ncnc(OC3CCNCC3)c21 [Example 26, 5-methyl-7-(4-methanesulfonyl-phenyl)-4-(piperidin-4-yloxy)-5H-pyrrolo[3,2-d]pyrimidine] | > 1000
28 | CCc1cnc(N2CCC(Oc3ncnc4c(-c5ccc(S(C)(=O)=O)cc5)cn(C)c34)CC2)nc1 [Example 27, 4-(1-(5-ethylpyrimidin-2-yl)piperidin-4-yloxy)-5-methyl-7-(4-methanesulfonyl-phenyl)-5H-pyrrolo[3,2-d]pyrimidine] | < 100
29 | Cn1cc(-c2ccc(S(C)(=O)=O)cc2)c2ncnc(OC3CCN(c4ncc(C(F)(F)F)cn4)CC3)c21 [Example 28, 5-methyl-7-(4-methanesulfonyl-phenyl)-4-(1-(5-(trifluoromethyl)pyrimidin-2-yl)piperidin-4-yloxy)-5H-pyrrolo[3,2-d]pyrimidine] | < 100
